Assay results from patent US20170129916A1, “NOVEL BETULINIC PROLINE IMIDAZOLE DERIVATIVES AS HIV INHIBITORS” (HETERO RESEARCH FOUNDATION, priority 2014, published 2017).

Assay: Single dose oral pharmacokinetic study
Format: in vivo
Conditions: mouse, mice, 30 mg/kg, plasma; for AUC(0-t): read-out: Mice oral PK @30 mg/kg AUC 0-t; for Cmax: read-out: Mice oral PK @30 mg/kg Cmax
Method: The test item was administered through oral route to animals (rat/mice) at 30 mg/kg dose in a suitable vehicle at 10 ml/kg dose volume. Blood samples (˜50 uL at each time point) were collected from retro-orbital plexus using K3 EDTA as anticoagulant in eppend; orf tubes at defined time intervals under light ether anesthesia. The samples were centrifuged at 3500×g to separate plasma and stored at −80° C. until analysis.
Sample analysis: Test samples were analyzed using LC-MS-MS after developing fit-for-purpose method for each of test compound.

SMILES | AUC(0-t) [µg·h/mL] | Cmax [ng/mL]
C=C(C)[C@@H]1CC[C@]2(C(=O)N3CCC[C@H]3c3ncc(-c4ccc(C(F)(F)F)cc4)[nH]3)CC[C@]3(C)[C@H](CC[C@@H]4[C@@]5(C)CC[C@H](OC(=O)[C@H]6C[C@@H](C(=O)O)C6(C)C)C(C)(C)[C@@H]5CC[C@]43C)[C@@H]12 [Compound 6, (1R,3S)-2,2-dimethyl-3-((((1R,3aS,5aR,5bR,7aR,9S,11aR,11bR,13aR,13bR)-5a,5b,8,8,11a-pentamethyl-1-(prop-1-en-2-yl)-3a-((S)-2-(5-(4-(trifluoromethyl)phenyl)-1H-imidazol-2-yl)pyrrolidine-1-carbonyl)icosahydro-1H-cyclopenta[a]chrysen-9-yl)oxy)carbonyl)cyclobutane-1-carboxylic acid] | 93.4 | 3100
C=C(C)[C@@H]1CC[C@]2(C(=O)N3CCC[C@H]3c3ncc(-c4ccc(Cl)cc4)[nH]3)CC[C@]3(C)[C@H](CC[C@@H]4[C@@]5(C)CC[C@H](OC(=O)[C@H]6C[C@@H](C(=O)O)C6(C)C)C(C)(C)[C@@H]5CC[C@]43C)[C@@H]12 [Compound 19, (1R,3S)-3-((((1R,3aS,5aR,5bR,7aR,9S,11aR,11bR,13aR,13bR)-3a-((S)-2-(5-(4-chlorophenyl)-1H-imidazol-2-yl)pyrrolidine-1-carbonyl)-5a,5b,8,8,11a-pentamethyl-1-(prop-1-en-2-yl)icosahydro-1H-cyclopenta[a]chrysen-9-yl)oxy)carbonyl)-2,2-dimethylcyclobutane-1-carboxylic acid] | 183 | 7500
C=C(C)[C@@H]1CC[C@]2(C(=O)N3C4CCC3CC(n3c(C)nnc3C(C)C)C4)CC[C@]3(C)[C@H](CC[C@@H]4[C@@]5(C)CC[C@H](OC(=O)[C@H]6C[C@@H](C(=O)O)C6(C)C)C(C)(C)[C@@H]5CC[C@]43C)[C@@H]12 (stereo partly drawn) [Compound 38, (1R,3S)-3-((((1R,3aS,5aR,5bR,7aR,9S,11aR,11bR,13aR,13bR)-3a-((1R,3R,5S)-3-(3-isopropyl-5-methyl-4H-1,2,4-triazol-4-yl)-8-azabicyclo[3.2.1]octane-8-carbonyl)-5a,5b,8,8,11a-pentamethyl-1-(prop-1-en-2-yl)icosahydro-1H-cyclopenta[a]chrysen-9-yl)oxy)carbonyl)-2,2-dimethylcyclobutane-1-carboxylic acid] | 127 | 7350
C=C(C)[C@@H]1CC[C@]2(C(=O)N3CCC[C@H]3c3ncc(-c4ccccn4)[nH]3)CC[C@]3(C)[C@H](CC[C@@H]4[C@@]5(C)CC[C@H](OC(=O)CC(C)(C)C(=O)O)C(C)(C)[C@@H]5CC[C@]43C)[C@@H]12 [Compound 39, 2,2-dimethyl-4-oxo-4-(((1R,3aS,5aR,5bR,7aR,9S,11aR,11bR,13aR,13bR)-5a,5b,8,8,11a-pentamethyl-1-(prop-1-en-2-yl)-3a-((S)-2-(5-(pyridin-2-yl)-1H-imidazol-2-yl)pyrrolidine-1-carbonyl)icosahydro-1H-cyclopenta[a]chrysen-9-yl)oxy)butanoic acid] | 80.9 | 5690
C=C(C)[C@@H]1CC[C@]2(C(=O)N3CCC[C@H]3c3ncc(-c4ccc(F)cc4)[nH]3)CC[C@]3(C)[C@H](CC[C@@H]4[C@@]5(C)CC[C@H](OC(=O)CC(C)(C)CC(=O)O)C(C)(C)[C@@H]5CC[C@]43C)[C@@H]12 [Compound 41, 5-(((1R,3aS,5aR,5bR,7aR,9S,11aR,11bR,13aR,13bR)-3a-((S)-2-(5-(4-fluorophenyl)-1H-imidazol-2-yl)pyrrolidine-1-carbonyl)-5a,5b,8,8,11a-pentamethyl-1-(prop-1-en-2-yl)icosahydro-1H-cyclopenta[a]chrysen-9-yl)oxy)-3,3-dimethyl-5-oxopentanoic acid] | 258 | 14500
C=C(C)[C@@H]1CC[C@]2(C(=O)N3C4CCC3CC(n3c(C)nnc3C(C)C)C4)CC[C@]3(C)[C@H](CC[C@@H]4[C@@]5(C)CC[C@H](OC(=O)CC(C)(C)C(=O)O)C(C)(C)[C@@H]5CC[C@]43C)[C@@H]12 (stereo partly drawn) [Compound 49, 4-(((1R,3aS,5aR,5bR,7aR,9S,11aR,11bR,13aR,13bR)-3a-((1R,3R,5S)-3-(3-isopropyl-5-methyl-4H-1,2,4-triazol-4-yl)-8-azabicyclo[3.2.1]octane-8-carbonyl)-5a,5b,8,8,11a-pentamethyl-1-(prop-1-en-2-yl)icosahydro-1H-cyclopenta[a]chrysen-9-yl)oxy)-2,2-dimethyl-4-oxobutanoic acid] | 111 | 10800
COCCOc1ccc(-c2cnc([C@@H]3CCCN3C(=O)[C@]34CC[C@@H](C5(C)CC5)[C@@H]3[C@H]3CC[C@@H]5[C@@]6(C)CC[C@H](OC(=O)[C@H]7C[C@@H](C(=O)O)C7(C)C)C(C)(C)[C@@H]6CC[C@@]5(C)[C@]3(C)CC4)[nH]2)cc1 [Compound 52, (1R,3S)-3-((((1R,3aS,5aR,5bR,7aR,9S,11aR,11bR,13aR,13bR)-3a-((S)-2-(5-(4-(2-methoxyethoxy)phenyl)-1H-imidazol-2-yl)pyrrolidine-1-carbonyl)-5a,5b,8,8,11a-pentamethyl-1-(1-methylcyclopropyl)icosahydro-1H-cyclopenta[a]chrysen-9-yl)oxy)carbonyl)-2,2-dimethylcyclobutane-1-carboxylic acid] | 273 | 9610
CC1([C@@H]2CC[C@]3(C(=O)N4CCC[C@H]4c4ncc(-c5ccc[n+]([O-])c5)[nH]4)CC[C@]4(C)[C@H](CC[C@@H]5[C@@]6(C)CC[C@H](OC(=O)[C@H]7C[C@@H](C(=O)O)C7(C)C)C(C)(C)[C@@H]6CC[C@]54C)[C@@H]23)CC1 [Compound 53, 3-(2-((S)-1-((1R,3aS,5aR,5bR,7aR,9S,11aR,11bR,13aR,13bR)-9-(((1S,3R)-3-carboxy-2,2-dimethylcyclobutane-1-carbonyl)oxy)-5a,5b,8,8,11a-pentamethyl-1-(1-methylcyclopropyl)icosahydro-1H-cyclopenta[a]chrysene-3a-carbonyl)pyrrolidin-2-yl)-1H-imidazol-5-yl)pyridine-1-oxide] | 471 | 14700
Cc1nnc(C(C)C)n1C1CCN(C(=O)[C@]23CC[C@@H](C4(C)CC4)[C@@H]2[C@H]2CC[C@@H]4[C@@]5(C)CC[C@H](OC(=O)[C@H]6C[C@@H](C(=O)O)C6(C)C)C(C)(C)[C@@H]5CC[C@@]4(C)[C@]2(C)CC3)CC1 [Compound 58, (1R,3S)-3-((((1R,3aS,5aR,5bR,7aR,9S,11aR,11bR,13aR,13bR)-3a-(4-(3-isopropyl-5-methyl-4H-1,2,4-triazol-4-yl)piperidine-1-carbonyl)-5a,5b,8,8,11a-pentamethyl-1-(1-methylcyclopropyl)icosahydro-1H-cyclopenta[a]chrysen-9-yl)oxy)carbonyl)-2,2-dimethylcyclobutane-1-carboxylic acid] | 104 | 3050
Cc1nnc(C(C)C)n1C1CC2CCC(C1)N2C(=O)[C@]12CC[C@@H](C3(C)CC3)[C@@H]1[C@H]1CC[C@@H]3[C@@]4(C)CC[C@H](OC(=O)[C@H]5C[C@@H](C(=O)O)C5(C)C)C(C)(C)[C@@H]4CC[C@@]3(C)[C@]1(C)CC2 (stereo partly drawn) [Compound 60, (1R,3S)-3-((((1R,3aS,5aR,5bR,7aR,9S,11aR,11bR,13aR,13bR)-3a-((1R,3R,5S)-3-(3-isopropyl-5-methyl-4H-1,2,4-triazol-4-yl)-8-azabicyclo[3.2.1]octane-8-carbonyl)-5a,5b,8,8,11a-pentamethyl-1-(1-methylcyclopropyl)icosahydro-1H-cyclopenta[a]chrysen-9-yl)oxy)carbonyl)-2,2-dimethylcyclobutane-1-carboxylic acid] | 295 | 6520
Cc1nnc(C(C)C)n1C1CCN(C(=O)[C@]23CC[C@@H](C4(C)CC4)[C@@H]2[C@H]2CC[C@@H]4[C@@]5(C)CC[C@H](OC(=O)CC(C)(C)C(=O)O)C(C)(C)[C@@H]5CC[C@@]4(C)[C@]2(C)CC3)CC1 [Compound 69, 4-(((1R,3aS,5aR,5 bR,7aR,9S,11aR,11bR,13aR,13bR)-3a-(4-(3-isopropyl-5-methyl-4H-1,2,4-triazol-4-yl)piperidine-1-carbonyl)-5a,5b,8,8,11a-pentamethyl-1-(1-methylcyclopropyl)icosahydro-1H-cyclopenta[a]chrysen-9-yl)oxy)-2,2-dimethyl-4-oxobutanoic acid] | 238 | 16700
Cc1nnc(C(C)C)n1C1CC2CCC(C1)N2C(=O)[C@]12CC[C@@H](C3(C)CC3)[C@@H]1[C@H]1CC[C@@H]3[C@@]4(C)CC[C@H](OC(=O)CC(C)(C)C(=O)O)C(C)(C)[C@@H]4CC[C@@]3(C)[C@]1(C)CC2 (stereo partly drawn) [Compound 71, 4-(((1R,3aS,5aR,5bR,7aR,9S,11aR,11bR,13aR,13bR)-3a-((R,3R,5S)-3-(3-isopropyl-5-methyl-4H-1,2,4-triazol-4-yl)-8-azabicyclo[3.2.1]octane-8-carbonyl)-5a,5b,8,8,11a-pentamethyl-1-(1-methylcyclopropyl)icosahydro-1H-cyclopenta[a]chrysen-9-yl)oxy)-2,2-dimethyl-4-oxobutanoic acid] | 298 | 15800
